Counter-ions that a name gives are not always drawn.
Target: T1, recombinant guanylate cyclase reporter cell line (Rattus norvegicus, UniProt P19686+P20595)
T1 construct: expressed in transfected cells; host or cells: recombinant reporter cell line
T1 sequence (P19686 1-690): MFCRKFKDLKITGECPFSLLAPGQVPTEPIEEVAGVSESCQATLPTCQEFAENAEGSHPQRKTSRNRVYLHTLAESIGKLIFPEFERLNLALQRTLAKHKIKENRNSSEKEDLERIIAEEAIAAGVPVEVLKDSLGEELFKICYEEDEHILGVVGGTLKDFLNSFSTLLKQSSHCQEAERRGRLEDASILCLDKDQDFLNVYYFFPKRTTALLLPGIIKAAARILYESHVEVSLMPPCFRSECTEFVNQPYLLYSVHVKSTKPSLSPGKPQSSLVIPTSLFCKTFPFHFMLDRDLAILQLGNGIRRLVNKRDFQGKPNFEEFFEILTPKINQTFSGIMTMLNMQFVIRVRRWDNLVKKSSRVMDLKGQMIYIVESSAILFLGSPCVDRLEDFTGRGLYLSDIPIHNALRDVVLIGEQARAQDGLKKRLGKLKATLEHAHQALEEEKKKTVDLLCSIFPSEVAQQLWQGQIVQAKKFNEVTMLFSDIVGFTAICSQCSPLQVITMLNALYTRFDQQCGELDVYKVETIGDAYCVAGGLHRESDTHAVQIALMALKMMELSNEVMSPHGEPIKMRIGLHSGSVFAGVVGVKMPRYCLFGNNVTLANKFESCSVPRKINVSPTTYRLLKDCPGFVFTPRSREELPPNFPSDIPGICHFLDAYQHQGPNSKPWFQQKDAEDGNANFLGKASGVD
T1 sequence (P20595 1-619): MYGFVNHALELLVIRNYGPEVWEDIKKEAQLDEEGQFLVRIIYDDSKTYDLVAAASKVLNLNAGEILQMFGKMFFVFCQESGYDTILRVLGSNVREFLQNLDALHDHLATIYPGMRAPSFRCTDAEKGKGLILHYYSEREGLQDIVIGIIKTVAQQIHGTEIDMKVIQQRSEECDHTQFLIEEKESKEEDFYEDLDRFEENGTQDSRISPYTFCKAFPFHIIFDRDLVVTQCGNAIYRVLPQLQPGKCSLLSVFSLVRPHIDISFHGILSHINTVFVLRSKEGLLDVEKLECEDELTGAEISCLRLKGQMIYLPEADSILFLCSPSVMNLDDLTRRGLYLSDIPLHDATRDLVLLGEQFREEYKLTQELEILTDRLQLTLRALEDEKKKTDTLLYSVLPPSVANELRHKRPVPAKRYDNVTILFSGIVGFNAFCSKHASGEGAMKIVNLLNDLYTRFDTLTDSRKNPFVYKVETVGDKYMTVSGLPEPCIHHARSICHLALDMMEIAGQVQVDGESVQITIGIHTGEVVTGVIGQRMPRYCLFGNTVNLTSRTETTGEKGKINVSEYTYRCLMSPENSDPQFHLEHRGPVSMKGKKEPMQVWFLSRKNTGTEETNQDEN
Experiment: Action on recombinant guanylate cyclase reporter cell line
Assay type: cell-based
Settings: in some cases mean values from individual determinations
Procedure, shortened: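 Read-out: MEC (minimal effective concentration) in cells. Reporter line carries recombinant sGC. Some values are averages of single runs.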

SMILES	MEC (minimal effective concentration) [µM]
Cc1nc2c(OCc3c(F)cccc3F)cccn2c1C(=O)NC(CN)c1ccc(F)cc1F (stereo not drawn) [Example 21, ent-N-[2-Amino-1-(2,4-difluorophenyl)ethyl]-8-[(2,6-difluorobenzyl)oxy]-2-methylimidazo[1,2-a]-pyridine-3-carboxamide]	0.30
Cc1cc(OCc2c(F)cccc2F)c2nc(C)c(C(=O)NCCNC(C)C)n2c1 (racemic) [Example 135, rac-8-[(2,6-difluorobenzyl)oxy]-N-[2-(isopropylamino)ethyl]-2,6-dimethylimidazo[1,2-a]pyridine-3-carboxamide]	1.00
Cc1cc(OCc2c(F)cccc2F)c2nc(C)c(C(=O)NCC(C)N3CCOCC3)n2c1 (racemic) [Example 138, rac-8-[(2,6-difluorobenzyl)oxy]-2,6-dimethyl-N-[2-(morpholin-4-yl)propyl]imidazo[1,2-a]-pyridine-3-carboxamide]	0.30
Cc1nc2c(OCc3c(F)cccc3F)cccn2c1C(=O)NCCN(C(C)C)C(C)C [Example 88, 8-[(2,6-difluorobenzyl)oxy]-N-[2-(diisopropyl-amino)ethyl]-2-methylimidazo[1,2-a]pyridine-3-carboxamide]	1.00
Cc1cc(OCc2c(F)cccc2F)c2nc(C)c(C(=O)NCCN(CC(F)F)C3CC3)n2c1 [Example 164, N-{2-[cyclopropyl(2,2-difluoroethyl)amino]ethyl}-8-[(2,6-difluorobenzyl)oxy]-2,6-dimethylimidazo[1,2-a]-pyridine-3-carboxamide]	0.10
Cc1cc(OCc2c(F)cccc2F)c2nc(C)c(C(=O)NC(C)(C)CN)n2c1 [Example 26, N-(1-amino-2-methylpropan-2-yl)-8-[(2,6-difluorobenzyl)oxy]-2,6-dimethylimidazo[1,2-a]-pyridine-3-carboxamide]	0.30
Cc1nc2c(OCc3c(F)cccc3F)cccn2c1C(=O)NC(CN)c1ccc(Cl)cc1 (racemic) [Example 14, rac-N-[2-Amino-1-(4-chlorophenyl)ethyl]-8-[(2,6-difluorobenzyl)oxy]-2-methylimidazo[1,2-a]-pyridine-3-carboxamide dihydrochloride]	1.00
Cc1nc2c(OCc3c(F)cccc3F)cc(Cl)cn2c1C(=O)NCC1CCCCN1 (racemic) [Example 118, rac-6-chloro-8-[(2,6-difluorobenzyl)oxy]-2-methyl-N-(piperidin-2-ylmethyl)imidazo[1,2-a]-pyridine-3-carboxamide]	1.00
Cc1nc2c(OCC3CCCCC3)cccn2c1C(=O)NC(CN)c1ccc(F)cc1F (stereo not drawn) [Example 45, ent-N-[2-Amino-1-(2,4-difluorophenyl)ethyl]-8-(cyclohexylmethoxy)-2-methylimidazo[1,2-a]-pyridine-3-carboxamide]	1.00
Cc1nc2c(OCc3c(F)cccc3F)cccn2c1C(=O)NC(C)[C@H](C)N (stereo partly drawn) [Example 120, N-[(3S)-3-Aminobutan-2-yl]-8-[(2,6-difluorobenzyl)oxy]-2-methylimidazo[1,2-a]pyridine-3-carboxamide]	0.30
Cc1nc2c(OCc3c(F)cccc3F)cccn2c1C(=O)NC1CNCc2ccccc21 (single isomer, unassigned; ent-8) [Example 109, ent-8-[(2,6-difluorobenzyl)oxy]-2-methyl-N-(1,2,3,4-tetrahydroisoquinolin-4-yl)imidazo[1,2-a]pyridine-3-carboxamide]	1.00
Cc1nc2c(OCc3c(F)cccc3F)cccn2c1C(=O)NC(CN)CC(C(F)(F)F)C(F)(F)F (single isomer, unassigned; enantiomer a) [Example 7, ent-N-[1-Amino-5,5,5-trifluoro-4-(trifluoromethyl)pentan-2-yl]-8-[(2,6-difluorobenzyl)oxy]-2-methylimidazo[1,2-a]pyridine-3-carboxamide (Enantiomer A)]	1.00
Cc1cc(OCc2c(F)cccc2F)c2nc(C)c(C(=O)NC(CN)c3ccc4c(c3)OCO4)n2c1 (racemic) [Example 381, rac-N-[2-amino-1-(1,3-benzodioxol-5-yl)ethyl]-8-[(2,6-difluorobenzyl)oxy]-2,6-dimethylimidazo[1,2-a]pyridine-3-carboxamide]	0.30
Cc1nc2c(OCc3c(F)cccc3F)cccn2c1C(=O)NC(C)CN (racemic) [Example 17, rac-N-(1-aminopropan-2-yl)-8-[(2,6-difluorobenzyl)oxy]-2-methylimidazo[1,2-a]pyridine-3-carboxamide dihydrochloride]	1.00
Cc1nc2c(OCc3c(F)cccc3F)cccn2c1C(=O)NC1CC(C)(C)N(C)C(C)(C)C1 [Example 83, 8-[(2,6-difluorobenzyl)oxy]-2-methyl-N-(1,2,2,6,6-pentamethylpiperidin-4-yl)imidazo[1,2-a]pyridine-3-carboxamide]	0.10
CCCC(C)(N)CNC(=O)c1c(C)nc2c(OCc3c(F)cccc3F)cc(Cl)cn12 (racemic) [Example 244, rac-N-(2-Amino-2-methylpentyl)-6-chloro-8-[(2,6-difluorobenzyl)oxy]-2-methylimidazo[1,2-a]-pyridine-3-carboxamide]	0.30
Cc1nc2c(OCc3c(F)cccc3F)cccn2c1C(=O)NC1CC2CCCC(C1)N2C1CC1 (centres unmarked) [Example 1, N-(9-Cyclopropyl-9-azabicyclo[3.3.1]non-3-yl)-8-[(2,6-difluorobenzyl)oxy]-2-methylimidazo[1,2-a]pyridine-3-carboxamide]	0.10
Cc1cc(OCc2c(F)cccc2F)c2nc(C)c(C(=O)NCC(N)COC(C)C)n2c1 (racemic) [Example 206, rac-N-(2-Amino-3-isopropoxypropyl)-8-[(2,6-difluorobenzyl)oxy]-2,6-dimethylimidazo[1,2-a]-pyridine-3-carboxamide]	0.30
CCCC(C)(N)CNC(=O)c1c(CC)nc2c(OCc3c(F)cccc3F)cc(C)cn12 (racemic) [Example 301, rac-N-(2-amino-2-methylpentyl)-8-[(2,6-difluorobenzyl)oxy]-2-ethyl-6-methylimidazo[1,2-a]pyridine-3-carboxamide]	0.10
Cc1cc(OCc2c(F)cccc2F)c2nc(C)c(C(=O)NCC3CS(=O)(=O)CCN3)n2c1 (racemic) [Example 414, rac-8-[(2,6-difluorobenzyl)oxy]-N-[(1,1-dioxidothiomorpholin-3-yl)methyl]-2,6-dimethylimidazo[1,2-a]pyridine-3-carboxamide]	0.30
Cc1cc(OCc2c(F)cccc2F)c2nc(C)c(C(=O)NC3CCCC(N)C3)n2c1 (centres unmarked) [Example 160, N-(3-aminocyclohexyl)-8-[(2,6-difluorobenzyl)oxy]-2,6-dimethylimidazo[1,2-a]-pyridine-3-carboxamide]	1.00
Cc1nc2c(OCc3c(F)cccc3F)cccn2c1C(=O)NCCC(C)(C)N [Example 117, N-(3-amino-3-methylbutyl)-8-[(2,6-difluorobenzyl)oxy]-2-methylimidazo[1,2-a]-pyridine-3-carboxamide]	1.00
Cc1nc2c(OCc3c(F)cccc3F)cccn2c1C(=O)NC(C)(C)C(C)(C)N [Example 141, N-(3-Amino-2,3-dimethylbutan-2-yl)-8-[(2,6-difluorobenzyl)oxy]-2-methylimidazo[1,2-a]pyridine-3-carboxamide]	3.00
